# According to article PMC5761851, “Application of a phenotypic drug discovery strategy to identify biological and chemical starting points for inhibition of TSLP production in lung epithelial cells” (PLoS ONE, 2018):
# Values joined by “and” are separate entries in the source; they are usually repeats but may differ in a detail not shown here. Equal entries are not always repeated.
# Assays:
# Type in all cases: cell-based, human
# [1] = system: TSLP production in NHBE cells; assay: TSLP HTRF assay (TSLP production in poly I:C / IL-4 stimulated NHBE cells); conditions: 4 μM; NHBE donor #1; average ± SD
# Experimental: For dose response curves determinations, stocks of test compounds at a concentration of 1.33x10^-3 M in DMSO were sequentially diluted at 1:4 dilution steps before further 1/50 dilution in BEBM medium containing 1x ITS and 0.1% BSA. For the highest 4 μM concentration test compounds were resuspended in DMSO at a concentration of 2.5x10^-3 M and diluted 1/25 in BEBM medium containing 1x ITS and 0.1% BSA before adding 1 μl to the wells containing the cells.
# All subsequent steps were automated using a Sciclone® G3 workstation (Perkin Elmer) with a Twister™ II robot (Perkin Elmer). […] 1 μl of test compound solution prepared at 25x concentration was added to the wells containing NHBE cells. The plates were then incubated during 90 minutes at 37°C, 5% CO2, 90% humidity before adding poly I:C (Invivogen HMW Tirl-pic-5) and human IL-4 (Peprotech 200–04) stimulus in 4 μl of BEBM medium containing 1x ITS, 0.1% BSA and 0.1% DMSO using a Multidrop™. […] Cells were then incubated for 24h in the presence of test compounds and stimulus at 37°C, 5% CO2 and 90% humidity conditions. After the 24h incubation period the plates were transferred to a CyBi®-Well platform (CyBio AG) to collect 10 μl of the supernatants which were transferred to a new plate. TSLP levels in the supernatant were determined using a homogeneous Time-Resolved Fluorescence (HTRF) assay custom developed by Cisbio. The assay was based in the use of a donor dye (europium cryptate) coupled to a monoclonal anti-TSLP antibody and an acceptor dye (d2) coupled to a second polyclonal anti-TSLP antibody. […] 10 μl of the resulting solution was then used to determine TSLP levels as described above.
# The standard curve was built with eight points prepared in ITS/BSA in BEBM medium without supplements, starting at 700 pg/ml and diluted 1:2, with medium alone being zero TSLP. Fitting model corresponded to equation 100 of Excel fit software. Data from the primary phenotypic screen was visualized using Vortex (Dotmatics). […] For compound selection the maximum inhibition of the two individual duplicate values was taken into account. Dose response confirmation was performed at single point in the 2 donors tested. 9 point curves were run starting at 4 μM concentration by doing serial 1:4 dilutions in cells derived from both donors.
# [2] = system: TSLP mRNA levels in NHBE cells; assay: TSLP mRNA real-time PCR (qPCR) in NHBE cells; parameters: TSLP mRNA upregulation (% versus control) / % Inhibition of mRNA: dose or concentration left out as unconfirmed
# [3] = system: TSLP production in NHBE cells; assay: TSLP HTRF assay (TSLP production in poly I:C / IL-4 stimulated NHBE cells); conditions: individual values
smiles,measurement,setting,value
CC(C)N(C(=O)CN1N=C(c2ccccc2)Cn2c(cc3ccccc32)C1=O)C(C)C [compound 1],TSLP protein upregulation (% versus control at 4 µM),[1],170 ± 62%
same,TSLP mRNA upregulation (% versus control at 4 μM),"[2]; 4 μM, NHBE donor #1, average ± SD",452 ± 103%
same,TSLP mRNA upregulation (% versus control),[2]; individual values,525.82% and 378.87%
same,TSLP protein upregulation (% versus control at 4 µM),[3],138.531% and 75.145% and 206.844% and 140.02% and 231.867% and 228.515%
